Measured values taken from US11458138B2 (Novartis AG, priority 2017, dated 2022).

Experiments:
[1] = system: YAP nuclear translocation in HaCaT cells; assay: YAP Translocation Assay (HaCaT Cells); format: cell-based, human; details: Homo sapiens, 24 hours
Method in brief: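 HaCaT cells (20,000/well) in DMEM + 10% FBS were plated overnight at 37° C, then exposed to compound for 24 h at 37° C. Cells were fixed with PFA, permeabilized with 0.1% Triton/1.5% BSA and imaged by high-content imaging.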

[2] = system: human limbal stem cells (LSCs); assay: Human limbal stem cell population expansion: percentage of p63alpha-positive cells; format: cell-based; details: 10 micromolar, XVIVO15 medium
Description: (§1) Cells were cultured at 37° C. in 5% CO2.
(§2) For each compound, two sets of cultures were generated. A first set of cultures was fixed in 4% PFA for 20 minutes at room temperature after cells isolated from the cornea had attached to the cell culture dish (typically 24 h after cell plating). A second set of cultures was fixed in 4% PFA for 20 minutes at room temperature after being cultured for two passages. Cells were passaged when they reached 90-100% confluence.
In order to observe that the expanded cell population expressed p63alpha, this was measured by immunohistochemistry as follows. The fixed cell cultures were permeabilized and blocked in a blocking solution of 0.3% Triton X-100 (Sigma-Aldrich) and 3% donkey serum in PBS for 30 minutes. Cells were then labeled with primary antibody in the blocking solution for 12 hours at 4° C. Primary antibody used was p63alpha from Cell Signalling. Samples were washed in PBS three times and donkey-raised secondary antibody Alexa Fluor 488 (Molecular Probes) at 1:500 dilution were applied for 30 minutes at room temperature. Cell nuclei were then labeled in a solution of 0.5 micromolar of Sytox Orange (ThermoFisher) in PBS for 5 minutes at room temperature.
To evaluate the percentage of p63alpha-positive cells, the number of cells labeled by the anti-p63alpha antibody was counted and the total number of cells was determined by counting the number of nuclei stained by Sytox Orange. The proportion of p63alpha-positive cells was then determined by calculating the percentage of Sytox-orange-positive nuclei that also expressed p63alpha.

[3] = system: human limbal stem cells (LSCs); assay: Human limbal stem cell population expansion: expansion factor; format: cell-based; details: 10 micromolar, XVIVO15 medium, two passages, ratio of expanded to seeded cells
Description: as §1, §2
To evaluate cell expansion ratios, nuclei were counted using a Zeiss LSM 880 confocal microscope. The expansion factor was then determined by calculating the ratio of the expanded population of cells to population of seeded cells.

[4] = system: Phospho-YAP (SER127) in HaCaT cells; assay: pYAP HTRF Assay (HaCaT Cells); format: cell-based, human; details: Homo sapiens, 2 hours
Method in brief: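 Phospho-YAP (Ser127) was measured by HTRF (665 nm/620 nm ratio) in HaCaT cells. Cells were grown 48 hours at 37° C at 5500 cells/well, exposed to compound for 2 hours, and incubated with detection reagents for 20 hrs at room temperature.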

[5] = system: human corneal endothelial cells (CECs); assay: Human corneal endothelial cell population expansion: fold cell expansion; format: cell-based; details: 10 micromolar compound, X-VIVO15 medium, 10 days, ratio of expanded to seeded cells
Description: as §1
(§3) For each compound, two sets of cultures were generated. A first set of cultures was fixed in 4% PFA for 20 minutes at room temperature after cells isolated from the cornea had attached to the cell culture dish (typically 24 h after cell plating). A second set of cultures was fixed in 4% PFA for 20 minutes at room temperature 10 days after the first one.
(§4) To measure cell density in all fixed cultures, the number of nuclei stained with Sytox Orange (ThermoFisher) were counted per surface area as follows: fixed cell cultures fixed were permeabilized in a solution of 0.3% Triton X-100 (Sigma-Aldrich). Cells were then labeled in a solution of 0.5 micromolar of Sytox Orange in PBS for 5 minutes at room temperature. Nuclei were counted under a Zeiss epifluorescence microscope. The expansion factor was then determined by calculating the ratio of the expanded population of cells to population of seeded cells.

LATS1 = LATS1 (Homo sapiens (Human), UniProt O95835); assay: LATS1 biochemical assay (Table 1A, Compound Examples 1-290; method in the earlier part)
Chain of LATS1 (O95835 whole entry, looked up): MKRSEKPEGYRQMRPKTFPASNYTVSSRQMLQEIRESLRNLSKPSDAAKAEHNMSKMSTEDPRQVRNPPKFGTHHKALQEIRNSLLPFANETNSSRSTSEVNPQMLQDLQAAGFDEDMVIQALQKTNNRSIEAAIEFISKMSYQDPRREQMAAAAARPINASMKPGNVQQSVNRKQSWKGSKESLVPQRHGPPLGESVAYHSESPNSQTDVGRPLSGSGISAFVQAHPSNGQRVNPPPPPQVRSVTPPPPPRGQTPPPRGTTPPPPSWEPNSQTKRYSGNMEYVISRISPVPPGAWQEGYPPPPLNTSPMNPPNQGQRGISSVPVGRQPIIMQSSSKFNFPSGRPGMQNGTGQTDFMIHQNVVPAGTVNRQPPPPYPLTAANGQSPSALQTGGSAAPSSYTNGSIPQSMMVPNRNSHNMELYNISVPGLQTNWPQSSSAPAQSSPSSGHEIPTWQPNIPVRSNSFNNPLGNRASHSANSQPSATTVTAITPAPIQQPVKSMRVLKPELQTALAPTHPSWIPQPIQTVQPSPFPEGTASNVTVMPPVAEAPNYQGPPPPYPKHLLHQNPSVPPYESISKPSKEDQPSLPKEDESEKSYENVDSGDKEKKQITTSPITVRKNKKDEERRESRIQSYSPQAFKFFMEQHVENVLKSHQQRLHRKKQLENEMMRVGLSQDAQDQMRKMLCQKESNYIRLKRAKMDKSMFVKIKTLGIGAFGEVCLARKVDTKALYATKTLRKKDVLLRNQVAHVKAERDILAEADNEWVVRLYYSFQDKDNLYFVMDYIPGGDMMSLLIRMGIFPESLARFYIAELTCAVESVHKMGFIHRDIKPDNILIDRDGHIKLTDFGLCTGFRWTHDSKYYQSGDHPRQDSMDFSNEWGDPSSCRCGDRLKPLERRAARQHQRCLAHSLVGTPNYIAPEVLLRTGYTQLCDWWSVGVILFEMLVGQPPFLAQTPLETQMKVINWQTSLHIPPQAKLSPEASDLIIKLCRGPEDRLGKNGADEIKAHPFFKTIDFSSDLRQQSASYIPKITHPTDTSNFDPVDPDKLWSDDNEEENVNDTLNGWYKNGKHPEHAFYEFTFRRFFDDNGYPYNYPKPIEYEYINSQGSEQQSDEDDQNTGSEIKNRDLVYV
Chain of LATS1 (Q7L9L4 whole entry partner, looked up): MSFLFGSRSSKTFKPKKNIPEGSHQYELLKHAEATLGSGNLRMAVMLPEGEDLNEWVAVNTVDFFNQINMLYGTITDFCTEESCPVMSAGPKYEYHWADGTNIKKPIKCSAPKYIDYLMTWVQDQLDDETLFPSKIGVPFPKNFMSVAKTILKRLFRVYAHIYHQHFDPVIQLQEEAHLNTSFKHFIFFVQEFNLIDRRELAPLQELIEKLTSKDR

[6] = system: human corneal endothelial cells (CECs); assay: Human corneal endothelial cell population expansion: endothelial cell density in vitro; format: cell-based; details: 10 micromolar compound, X-VIVO15 medium, 10 days
Description: as §1, §3, §4

[7] = system: Phospho-YAP (Ser127) in JHH-5 cells; assay: pYAP HTRF Assay (JHH-5 cells); format: cell-based; details: 2 hours
Method in brief: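 Phospho-YAP read by HTRF (665 nm/620 nm ×10000) in lysates after overnight 18 h antibody incubation at room temperature. Compound treatment lasted 2 h at 37 °C, on JHH-5 cells plated 24 h earlier at 24000 per well in William's E medium with 10% FBS.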

[8] = target: Human LATS2 kinase domain protein (Homo sapiens (Human), UniProt Q9NRM7); assay: LATS2 Biochemical Caliper Assay (Compound Examples 1-290); details: 400 micromolar ATP
Chain of Human LATS2 kinase domain protein (Q9NRM7 553-1088): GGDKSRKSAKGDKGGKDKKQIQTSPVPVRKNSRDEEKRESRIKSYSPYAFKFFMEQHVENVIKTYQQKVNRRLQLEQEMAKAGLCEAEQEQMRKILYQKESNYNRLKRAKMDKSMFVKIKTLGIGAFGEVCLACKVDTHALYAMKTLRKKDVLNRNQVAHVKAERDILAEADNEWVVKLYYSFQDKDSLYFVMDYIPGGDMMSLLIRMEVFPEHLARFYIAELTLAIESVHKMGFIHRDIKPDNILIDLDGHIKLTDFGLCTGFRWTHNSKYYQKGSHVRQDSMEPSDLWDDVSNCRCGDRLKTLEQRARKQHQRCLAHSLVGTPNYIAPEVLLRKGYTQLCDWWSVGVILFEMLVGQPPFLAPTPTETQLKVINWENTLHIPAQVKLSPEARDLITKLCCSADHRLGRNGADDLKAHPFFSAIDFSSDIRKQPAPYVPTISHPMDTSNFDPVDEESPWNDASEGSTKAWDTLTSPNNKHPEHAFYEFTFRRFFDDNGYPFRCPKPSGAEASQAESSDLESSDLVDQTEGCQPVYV
Chain of Human LATS2 kinase domain protein (Q7L9L4 whole entry partner, the tested form may be a part): as the sequence (Q7L9L4 whole entry partner, looked up) above
Description: Human LATS2 kinase domain protein was purchased from Carnabio (catalogue number 01-124), which harbors the catalytic domain of amino acids 553-1088, and was co-purified with human His-tagged MOBKL1A (NP_775-739). 5 microlitre of enzyme buffer, 100 nL of compounds and 5 microlitre of localising aid buffer were added into 384-well plates. […] The plates were incubated at 25° C. for 3 hours. 40 microlitre of stop buffer with 25 mM EDTA (NanoSyn) was added to each well to terminate the reaction. Localising aids and products were separated electrophoretically using the microfluidic-based Caliper Labchip 3000 Drug Discovery System (Caliper Life Sciences). Plates were read using blue laser excitation and green fluorescence detection and quantified by fluorescence intensity.

SMILES	EC50 [1] [nM]	Percentage of p63a-positive cells [2] [%]	Expansion factor [3]	IC50 [4] [nM]	Expansion factor (Fold Cell expansion) [5]	IC50 (LATS1) [nM]	Endothelial Cell density in vitro [6] [cells/mm^2]	IC50 [7] [nM]	IC50 [8] [nM]
O[C@H]1CCC[C@@H]1Nc1nc(-c2ccncc2)nc2cnccc12 [Example 33, (1S,2S)-2-{[2-(pyridin-4-yl)pyrido[3,4-d]pyrimidin-4-yl]amino}cyclopentan-1-ol]	> 20000	6	39	> 20000	12	71	25	–	–
CC(C)(CO)Nc1nc(-c2ccncc2)nc2cnccc12 [Example 66, 2-methyl-2-{[2-(pyridin-4-yl)pyrido[3,4-d]pyrimidin-4-yl]amino}propan-1-ol]	1010	89	1160	534	280	2	2503	6200	11
CC(C)(Nc1nc(-c2ccncc2Cl)nc2cnccc12)C(F)(F)F [Example 139, 2-(3-chloropyridin-4-yl)-N-(1,1,1-trifluoro-2-methylpropan-2-yl)pyrido[3,4-d]pyrimidin-4-amine]	2660	87	961	380	107	3	1179	1700	20
FC(F)(F)C1(Nc2nc(-c3ccncc3)cc3cnccc23)CC1 [Example 288, 3-(pyridin-4-yl)-N-(1-(trifluoromethyl)cyclopropyl)-2,6-naphthyridin-1-amine]	7420	95	1241	18300	302	4	2779	–	34
CCCNc1nc(-c2c[nH]nc2C(F)(F)F)nc2cnccc12 [Example 287, N-propyl-2-(3-(trifluoromethyl)-1H-pyrazol-4-yl)pyrido[3,4-d]pyrimidin-4-amine]	3880	86	991	2990	237	2	1893	9000	15
CC(C)Nc1nc(-c2ccncc2)nc2cnccc12 [Example 6, N-(propan-2-yl)-2-(pyridin-4-yl)pyrido[3,4-d]pyrimidin-4-amine]	1700	93	1275	1240	391	1	3378	2600	8
CC1(Nc2cc(-c3ccncc3)cc3cnccc23)CC1 [Example 289, N-(1-methylcyclopropyl)-7-(pyridin-4-yl)isoquinolin-5-amine]	6500	80	681	34100	84	4	1421	–	–
CC1CCCC1Nc1nc(-c2ccncc2)nc2cnccc12 (stereo not shown) [Example 17, N-(2-methylcyclopentyl)-2-(pyridin-4-yl)pyrido[3,4-d]pyrimidin-4-amine]	2630	86	976	606	187	5	1628	–	–
CC(C)N(C)c1nc(-c2ccncc2)nc2cnccc12 [Example 5, N-methyl-N-(propan-2-yl)-2-(pyridin-4-yl)pyrido[3,4-d]pyrimidin-4-amine]	2480	–	–	2190	408	2	3911	2300	–
FC(F)(F)C1CN(c2nc(-c3ccncc3)nc3cnccc23)CCN1 (stereo not shown) [Example 290, 2-(pyridin-4-yl)-4-(3-(trifluoromethyl)piperazin-1-yl)pyrido[3,4-d]pyrimidine]	1390	90	1051	–	221	4	2071	3000	8
FC(F)(F)C1(Nc2nc(-c3ccncc3)nc3cnccc23)CCC1 [Example 62, 2-(pyridin-4-yl)-N-[1-(trifluoromethyl)cyclobutyl]pyrido[3,4-d]pyrimidin-4-amine]	538	95	1712	40	402	1	3301	600	2
